Test results: ChEMBL document CHEMBL3826915, “Design and comparative anticonvulsant activity assessment of CNS-active alkyl-carbamoyl imidazole derivatives” (Bioorg Med Chem, 2016)
Active and inactive are the calls of the source. The rule behind the calls is not given here.

Tests used:
Mus musculus [1] = test: Neurotoxicity in albino CF1 mouse assessed as behavioral impairment at 30 mg/kg, ip after 0.5 hrs by rotorod test; assay type: toxicity, organism-based; details: in vivo
Rattus norvegicus [2] = test: Neurotoxicity in albino Sprague-Dawley rat assessed as behavioral impairment at 30 mg/kg, po after 2 hrs by rotorod test; assay type: toxicity, organism-based; details: in vivo
[3] = Protective index, ratio of TD50 for neurotoxicity in ip dosed albino CF1 mouse to ED50 for anticonvulsant activity in ip dosed maximal electroshock-induced seizure albino CF1 mouse model; assay type: toxicity, organism-based; details: in vivo, read-out: Ratio TD50/ED50
Rattus norvegicus [4] = test: Neurotoxicity in albino Sprague-Dawley rat assessed as behavioral impairment at 30 mg/kg, po after 0.25 hrs by rotorod test; assay type: toxicity, organism-based; details: in vivo
Rattus norvegicus [5] = test: Neurotoxicity in albino Sprague-Dawley rat assessed as behavioral impairment at 30 mg/kg, ip after 0.5 hrs by rotorod test; assay type: toxicity, organism-based; details: in vivo
Mus musculus [6] = test: Anticonvulsant activity in ip dosed albino CF1 mouse assessed as protection against subcutaneous metrazol-induced seizures; assay type: functional
Rattus norvegicus [7] = test: Anticonvulsant activity in albino Sprague-Dawley rat assessed as protection against maximal electroshock-induced seizures at 30 mg/kg, po after 1 hr; assay type: functional, organism-based
Rattus norvegicus [8] = test: Anticonvulsant activity in albino Sprague-Dawley rat assessed as protection against maximal electroshock-induced seizures at 30 mg/kg, po after 0.5 hrs; assay type: functional, organism-based
Mus musculus [9] = test: Anticonvulsant activity in ip dosed albino CF1 mouse assessed as protection against 6 Hz current-induced seizure by measuring time to peak effect; assay type: functional
Mus musculus [10] = test: Neurotoxicity in albino CF1 mouse assessed as behavioral impairment at 100 mg/kg, ip after 1 hr by rotorod test; assay type: toxicity, organism-based; details: in vivo
Mus musculus [11] = test: Anticonvulsant activity in albino CF1 mouse assessed as protection against maximal electroshock-induced seizures at 100 mg/kg, ip after 2 hrs; assay type: functional, organism-based
Mus musculus [12] = test: Anticonvulsant activity in albino CF1 mouse assessed as protection against 32 mA current-induced seizure at 300 mg/kg, ip after 0.5 hrs by 6 Hz psychomotor test; assay type: functional, organism-based
Mus musculus [13] = test: Neurotoxicity in albino CF1 mouse assessed as behavioral impairment at 30 mg/kg, ip after 2 hrs by rotorod test; assay type: toxicity, organism-based; details: in vivo
Mus musculus [14] = test: Neurotoxicity in albino CF1 mouse assessed as behavioral impairment at 100 mg/kg, ip after 2 hrs by rotorod test; assay type: toxicity, organism-based; details: in vivo
Rattus norvegicus [15] = test: Neurotoxicity in albino Sprague-Dawley rat assessed as behavioral impairment at 30 mg/kg, po after 0.5 hrs by rotorod test; assay type: toxicity, organism-based; details: in vivo
[16] = Protective index, ratio of TD50 for neurotoxicity in ip dosed albino Sprague-Dawley rat to ED50 for anticonvulsant activity in ip dosed subcutaneous metrazol-induced seizure albino Sprague-Dawley rat model; assay type: toxicity, organism-based; details: in vivo, read-out: Ratio TD50/ED50
Mus musculus [17] = test: Neurotoxicity in albino CF1 mouse assessed as behavioral impairment at 100 mg/kg, ip after 0.25 hrs by rotorod test; assay type: toxicity, organism-based; details: in vivo
Rattus norvegicus [18] = test: Neurotoxicity in albino Sprague-Dawley rat assessed as behavioral impairment at 30 mg/kg, ip after 2 hrs by rotorod test; assay type: toxicity, organism-based; details: in vivo
Rattus norvegicus [19] = test: Anticonvulsant activity in albino Sprague-Dawley rat assessed as protection against maximal electroshock-induced seizures at 30 mg/kg, ip after 0.25 hrs; assay type: functional, organism-based
Mus musculus [20] = test: Anticonvulsant activity in ip dosed albino CF1 mouse assessed as protection against maximal electroshock-induced seizures; assay type: functional
Mus musculus [21] = test: Anticonvulsant activity in ip dosed albino CF1 mouse assessed as protection against maximal electroshock-induced seizures by measuring time to peak effect; assay type: functional
[22] = Protective index, ratio of TD50 for neurotoxicity in ip dosed albino Sprague-Dawley rat to ED50 for anticonvulsant activity in ip dosed maximal electroshock-induced seizure albino Sprague-Dawley rat model; assay type: toxicity, organism-based; details: in vivo, read-out: Ratio TD50/ED50
Mus musculus [23] = test: Anticonvulsant activity in ip dosed albino CF1 mouse assessed as protection against 6 Hz current-induced seizures by psychomotor test; assay type: functional
[24] = Protective index, ratio of TD50 for neurotoxicity in ip dosed albino CF1 mouse to ED50 for anticonvulsant activity in ip dosed […] metrazol-induced seizure albino CF1 mouse model; assay type: toxicity, organism-based; details: in vivo, read-out: Ratio TD50/ED50
Rattus norvegicus [25] = test: Anticonvulsant activity in albino Sprague-Dawley rat assessed as protection against maximal electroshock-induced seizures at 30 mg/kg, po after 2 hrs; assay type: functional, organism-based
Rattus norvegicus [26] = test: Neurotoxicity in albino Sprague-Dawley rat assessed as behavioral impairment at 30 mg/kg, po after 1 hr by rotorod test; assay type: toxicity, organism-based; details: in vivo
[27] = Neurotoxicity in ip dosed albino Sprague-Dawley rat assessed as motor impairment by rotorod test; assay type: toxicity, organism-based; details: in vivo
Mus musculus [28] = test: Anticonvulsant activity in albino CF1 mouse assessed as protection against maximal electroshock-induced seizures at 100 mg/kg, ip after 0.5 hrs; assay type: functional, organism-based
Rattus norvegicus [29] = test: Anticonvulsant activity in ip dosed albino Sprague-Dawley rat assessed as protection against subcutaneous metrazol-induced seizures; assay type: functional
Rattus norvegicus [30] = test: Anticonvulsant activity in ip dosed albino Sprague-Dawley rat assessed as protection against subcutaneous metrazol-induced seizures by measuring time to peak effect; assay type: functional
Mus musculus [31] = test: Anticonvulsant activity in albino CF1 mouse assessed as protection against maximal electroshock-induced seizures at 30 mg/kg, ip after 0.5 hrs; assay type: functional, organism-based
Rattus norvegicus [32] = test: Neurotoxicity in albino Sprague-Dawley rat assessed as behavioral impairment at 30 mg/kg, ip after 0.25 hrs by rotorod test; assay type: toxicity, organism-based; details: in vivo
Rattus norvegicus [33] = test: Anticonvulsant activity in ip dosed albino Sprague-Dawley rat assessed as protection against maximal electroshock-induced seizures; assay type: functional
Mus musculus [34] = test: Anticonvulsant activity in ip dosed albino CF1 mouse assessed as protection against subcutaneous metrazol-induced seizures by measuring time to peak effect; assay type: functional
Mus musculus [35] = test: Anticonvulsant activity in albino CF1 mouse assessed as protection against 32 mA current-induced seizure at 30 mg/kg, ip after 2 hrs by 6 Hz psychomotor test; assay type: functional, organism-based
Mus musculus [36] = test: Neurotoxicity in albino CF1 mouse assessed as behavioral impairment at 300 mg/kg, ip after 0.5 hrs by rotorod test; assay type: toxicity, organism-based; details: in vivo
Mus musculus [37] = test: Neurotoxicity in albino CF1 mouse assessed as behavioral impairment at 300 mg/kg, ip after 2 hrs by rotorod test; assay type: toxicity, organism-based; details: in vivo
Rattus norvegicus [38] = test: Anticonvulsant activity in albino Sprague-Dawley rat assessed as protection against maximal electroshock-induced seizures at 30 mg/kg, ip after 0.5 hrs; assay type: functional, organism-based
[39] = Neurotoxicity in ip dosed albino CF1 mouse assessed as motor impairment by rotorod test; assay type: toxicity, organism-based; details: in vivo
Mus musculus [40] = test: Anticonvulsant activity in albino CF1 mouse assessed as protection against 44 mA current-induced seizure at 100 mg/kg, ip after 0.25 hrs by 6 Hz psychomotor test; assay type: functional, organism-based
[41] = Protective index, ratio of TD50 for neurotoxicity in ip dosed albino CF1 mouse to ED50 for anticonvulsant activity in ip dosed 6 Hz current-induced seizure albino CF1 mouse model; details: in vivo
Rattus norvegicus [42] = test: Anticonvulsant activity in ip dosed albino Sprague-Dawley rat assessed as protection against maximal electroshock-induced seizures by measuring time to peak effect; assay type: functional
Rattus norvegicus [43] = test: Neurotoxicity in albino Sprague-Dawley rat assessed as behavioral impairment at 30 mg/kg, ip after 1 hr by rotorod test; assay type: toxicity, organism-based; details: in vivo
Rattus norvegicus [44] = test: Anticonvulsant activity in albino Sprague-Dawley rat assessed as protection against maximal electroshock-induced seizures at 30 mg/kg, ip after 2 hrs; assay type: functional, organism-based
Rattus norvegicus [45] = test: Anticonvulsant activity in albino Sprague-Dawley rat assessed as protection against maximal electroshock-induced seizures at 30 mg/kg, ip after 1 hr; assay type: functional, organism-based

Q: With CCCC(CC)OC(=O)NCCCn1ccnc1 (stereo not given) as the compound, how does the Activity (Mus musculus [1]) read?
A: Non-toxic

Q: And the Activity (Rattus norvegicus [2])?
A: Non-toxic

Q: And the selectivity ratio [3]?
A: 3.1

Q: What about the Activity (Rattus norvegicus [4]) of the same compound?
A: Non-toxic

Q: And the Activity (Rattus norvegicus [5])?
A: Non-toxic

Q: And the ED50 (Mus musculus [6])?
A: > 50 mg/kg

Q: And the Activity (Rattus norvegicus [7])?
A: inactive

Q: What about the Activity (Rattus norvegicus [8]) of the same compound?
A: inactive

Q: And the Time (Mus musculus [9])?
A: 0.5 h

Q: What about the Activity (Mus musculus [10]) of the same compound?
A: Non-toxic

Q: And the Activity (Mus musculus [11])?
A: Active

Q: And the Activity (Mus musculus [12])?
A: Active

Q: What about the Activity (Mus musculus [13]) of the same compound?
A: Non-toxic

Q: And the Activity (Mus musculus [14])?
A: Non-toxic

Q: And the Activity (Rattus norvegicus [15])?
A: Non-toxic

Q: And the selectivity ratio [16]?
A: 1

Q: What about the Activity (Mus musculus [17]) of the same compound?
A: Toxic

Q: What about the Activity (Rattus norvegicus [18]) of the same compound?
A: Non-toxic

Q: And the Activity (Rattus norvegicus [19])?
A: Active

Q: And the ED50 (Mus musculus [20])?
A: 28 mg/kg

Q: What about the Time (Mus musculus [21]) of the same compound?
A: 0.5 h

Q: And the selectivity ratio [22]?
A: 5.4

Q: What about the ED50 (Mus musculus [23]) of the same compound?
A: 135 mg/kg

Q: And the selectivity ratio [24]?
A: 1.7

Q: What about the Activity (Rattus norvegicus [25]) of the same compound?
A: inactive

Q: What about the Activity (Rattus norvegicus [26]) of the same compound?
A: Non-toxic

Q: And the TD50 [27]?
A: 92 mg/kg

Q: What about the Activity (Mus musculus [28]) of the same compound?
A: Active

Q: What about the ED50 (Rattus norvegicus [29]) of the same compound?
A: > 92 mg/kg

Q: And the Time (Rattus norvegicus [30])?
A: 0.25 h

Q: And the Activity (Mus musculus [31])?
A: Active

Q: And the Activity (Rattus norvegicus [32])?
A: Non-toxic

Q: What about the ED50 (Rattus norvegicus [33]) of the same compound?
A: 17 mg/kg

Q: What about the Time (Mus musculus [34]) of the same compound?
A: 0.5 h

Q: And the Activity (Mus musculus [35])?
A: inactive

Q: What about the Activity (Mus musculus [36]) of the same compound?
A: Toxic

Q: And the Activity (Mus musculus [37])?
A: Toxic

Q: And the Activity (Rattus norvegicus [38])?
A: Active

Q: What about the TD50 [39] of the same compound?
A: 86 mg/kg

Q: What about the Activity (Mus musculus [40]) of the same compound?
A: Active

Q: What about the selectivity ratio [41] of the same compound?
A: 0.64

Q: And the Time (Rattus norvegicus [42])?
A: 0.25 h

Q: And the Activity (Rattus norvegicus [43])?
A: Non-toxic

Q: And the Activity (Rattus norvegicus [44])?
A: Active

Q: What about the Activity (Rattus norvegicus [45]) of the same compound?
A: Active
